Source: publication PMC6364906 (PLoS ONE, 2019)
In brackets after ≈: the same amount, converted by molar mass.

Legend:
[1] = tested on: bacterial dipeptidases; conditions: cited from earlier work
[2] = tested on: K. pneumoniae GRP-0107; experiment: MIC/MBC by broth microdilution (CLSI); type: cell-based, Klebsiella pneumoniae; conditions: geometric mean, wild-type strain
Method: (§1) The statistical significance of the difference in geometric means of MIC and MBC was determined with the Mann-Whitney U test.

[3] = tested on: P. aeruginosa GRP-0049; type: cell-based; conditions: geometric mean, broth microdilution, MDR carbapenem susceptible strain
Method: as §1

[4] = tested on: P. aeruginosa GRP-0019; type: cell-based; conditions: geometric mean, broth microdilution, wild-type strain
Method: as §1

[5] = tested on: P. aeruginosa GRP-0036; type: cell-based; conditions: geometric mean, broth microdilution, MDR carbapenem resistant strain
Method: as §1

[6] = tested on: P. aeruginosa ATCC 27853; experiment: MIC/MBC by broth microdilution (CLSI); type: cell-based, Pseudomonas aeruginosa; conditions: geometric mean, wild-type reference strain
Method: as §1

SMILES	inhibition of bacterial dipeptidases [1]	MIC [range] [2]	MIC [range] [3]	MIC [range] [4]	MIC [range] [5]	MIC [range] [6]
CC1(C)C[C@@H]1C(=O)N/C(=C\CCCCSC[C@H](N)C(=O)O)C(=O)O [cilastatin]	very inefficient inhibitor	–	–	–	–	–
C[C@@H](O)[C@H]1C(=O)N2C(C(=O)O)=C(SCCN=CN)C[C@H]12 [imipenem]	–	0.5 µg/mL (≈ 1.67 µM)	1.2 µg/mL (≈ 4.01 µM)	0.5 µg/mL (≈ 1.67 µM)	8 µg/mL (≈ 26.7 µM)	1.0 µg/mL (≈ 3.34 µM)
